We go through 25 compounds from patent US4925852A, “3-demethylmevalonic acid derivatives, and pharmaceutical products based on these compounds” (Hoechst Aktiengesellschaft, priority 1987, dated 1990).

Structures are written as SMILES. Counter-ions that a name gives are not always drawn.

The subject of experiment [1] is cholesterol. As to conditions: literature; cited from earlier work.
Experiment [2] relates to cholesterol. As to conditions: literature; cited from earlier work. The source holds these as a separate data set.
For experiment [3], the system named is HEP-G2 cells (cholesterol biosynthesis). Briefly: Inhibition of cholesterol biosynthesis in cell cultures of HEP-G2 cells (14C-acetate into 14C-cholesterol). The format is cell-based. Particulars: Homo sapiens, HepG2, Table 2, preincubation for example 1 hour, 14C-acetate for example 3 hours, read-out: IC50 (concentration of the compound which brings about 50% inhibition of cholesterol biosynthesis). The protocol:
Monolayers of HEP-G2 cells in lipoprotein-free nutrient medium were preincubated with appropriate concentrations of the test substances for a defined time (for example 1 hour), the labeled precursor, for example sodium ^14 C-acetate was added and then the incubation was continued (for example for 3 hours). Addition of an internal standard (^3 H-cholesterol) was followed by alkaline hydrolysis of some of the cells. The lipids were extracted from the hydrolyzed cells using chloroform/methanol. Carrier cholesterol was added to this lipid mixture which was then subjected to preparative thin-layer chromatography, the cholesterol band was visualized with iodine vapor and then isolated, and the amount of ^14 C-cholesterol formed from the ^14 C-precursor was determined by scintigraphy. Cellular protein was determined in an aliquot of the cells, so that it is possible to calculate the amount of ^14 C-cholesterol formed per mg of cellular protein in unit time.
in nmol of ^14 C-cholesterol/mg of cell protein
in comparison with the solvent control.
Using the method described above, the following values for the inhibition of cholesterol biosynthesis (in HEP-G2 cells) were determined for the compounds according to the invention, for example (the IC50 /mol/liter is the concentration of the compound which brings about 50% inhibition of cholesterol biosynthesis) (Tab. 2): […]

A further experiment deals with T1, HMG-CoA reductase (Rattus norvegicus, UniProt P51639).
T1 construct: solubilized enzyme preparations from rat liver microsomes; from tissue; host or cells: rat liver microsomes (cholestyramine-induced), solubilized
T1 sequence (P51639 1-887): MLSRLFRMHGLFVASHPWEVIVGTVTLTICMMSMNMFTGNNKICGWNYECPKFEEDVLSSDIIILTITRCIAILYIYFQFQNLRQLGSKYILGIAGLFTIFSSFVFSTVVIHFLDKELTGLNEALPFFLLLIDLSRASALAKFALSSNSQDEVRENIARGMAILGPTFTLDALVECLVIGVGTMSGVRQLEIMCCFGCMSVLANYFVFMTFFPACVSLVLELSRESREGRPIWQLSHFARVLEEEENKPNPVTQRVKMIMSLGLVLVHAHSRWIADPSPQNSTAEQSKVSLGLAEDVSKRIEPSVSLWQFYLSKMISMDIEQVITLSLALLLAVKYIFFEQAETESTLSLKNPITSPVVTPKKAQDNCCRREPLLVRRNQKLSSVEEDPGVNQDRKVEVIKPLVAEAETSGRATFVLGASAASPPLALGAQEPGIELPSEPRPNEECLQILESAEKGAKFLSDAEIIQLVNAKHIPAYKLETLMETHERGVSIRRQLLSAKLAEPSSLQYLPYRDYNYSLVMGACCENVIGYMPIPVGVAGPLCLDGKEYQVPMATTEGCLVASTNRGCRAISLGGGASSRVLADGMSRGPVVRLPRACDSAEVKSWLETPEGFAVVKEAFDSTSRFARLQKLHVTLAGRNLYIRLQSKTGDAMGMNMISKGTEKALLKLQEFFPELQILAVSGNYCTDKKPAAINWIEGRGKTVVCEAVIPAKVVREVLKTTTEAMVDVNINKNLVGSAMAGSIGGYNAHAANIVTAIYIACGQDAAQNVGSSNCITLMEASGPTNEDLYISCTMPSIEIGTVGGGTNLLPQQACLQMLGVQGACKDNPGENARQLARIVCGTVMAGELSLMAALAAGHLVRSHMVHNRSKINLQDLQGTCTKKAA
The experiment can be described thus: HMG-CoA reductase activity in solubilized enzyme preparations from rat liver microsomes (14C-HMG-CoA). The format is biochemical. As to conditions: Table 1; solubilized rat liver microsomal enzyme; mean of 3 parallel samples; read-out: IC50 (molar concentration of the compound required for 50% inhibition of HMG-CoA reductase). The protocol:
The HMG-CoA reductase activity was measured on solubilized enzyme preparations from rat liver microsomes induced, after a changeover in the day/night rhythm, with cholestyramine (® CUEMID). The substrate used was (S,R)-^14 C-HMG-CoA, and the NADPH concentration was maintained during the incubation by a regenerating system. ^14 C-Mevalonate was separated from the substrate and other products (for example ^14 C-HMG) by column elution, the elution profile of each individual sample being determined. ^3 H-Mevalonate was not always included in the determination because relative data on the inhibitory effects were required. […] Each individual value was the mean formed from 3 parallel samples. The significance of the mean differences between product-free and product-containing samples was assessed using the t test.
A general note: Liver microsomes are a subcellular fraction often used to study metabolism.

Experiment [4] concerns 3-hydroxy-3-methylglutaryl-coenzyme A reductase (HMG-CoA reductase). Particulars: cited from earlier work.

For the compound `CC(O)(CC(=O)O)CC(=O)O` [3-Hydroxy-3-methylglutaric acid], in the experiment with cholesterol [1], the “cholesterol-lowering action in the rat” value is recorded as “significant cholesterol-lowering action”. Also, the “cholesterol-lowering action in human experiments” value in the experiment with cholesterol [2] is reported as “significant cholesterol-lowering action”.

In the case of `Cc1nc(-c2ccccc2)cc(-c2ccc(F)cc2)c1/C=C/[C@@H]1C[C@@H](O)CC(=O)O1` [Example 11c], the IC50 in experiment [3] was 90 nM.

On to `Cc1cc(-c2ccc(F)cc2)c(/C=C/[C@@H]2C[C@@H](O)CC(=O)O2)c(C(C)C)n1` [Example 11d], for which, in experiment [3], the IC50 is 50 nM.

Regarding `CC(C)c1nc(-c2ccccc2)cc(-c2ccc(F)cc2)c1/C=C/[C@@H]1C[C@@H](O)CC(=O)O1` [Example 11e], the IC50 in experiment [3] was determined as 5 nM.

`CC(C)c1nc(-c2ccccc2)nc(-c2ccc(F)cc2)c1/C=C/[C@@H]1C[C@@H](O)CC(=O)O1` [Example 11o]: in experiment [3], the IC50 worked out at 5 nM.

For `Cc1cc(-c2ccc(F)cc2)c(/C=C/[C@@H](O)C[C@@H](O)CC(=O)O)c(C)n1` [Example 13a, (E)- and (Z)-(3R,5S)-3,5-Dihydroxy-7-(2,6-dimethyl-4-(4-fluorophenyl)pyridin-3-yl)-6-heptenoic acid potassium salts], the IC50 at HMG-CoA reductase is 260 nM.

Consider `CC(C)c1nc(-c2ccc(O)cc2)cc(-c2ccc(F)cc2)c1/C=C/[C@@H](O)C[C@@H](O)CC(=O)O` [Example 13ab], for which the IC50 at HMG-CoA reductase was 1.5 nM.

Consider `O=C(O)C[C@H](O)C[C@H](O)/C=C/c1c(-c2ccc(F)cc2)cc(-c2ccccc2)nc1C1CC1` [Example 13ac], for which the IC50 on HMG-CoA reductase was 1 nM.

In the case of `Cc1cc(-c2ccc(Cl)cc2)c(/C=C/[C@@H](O)C[C@@H](O)CC(=O)O)c(C)n1` [Example 13b], at HMG-CoA reductase, the IC50 turned out to be 94 nM.

On to `Cc1nc(-c2ccccc2)cc(-c2ccc(F)cc2)c1/C=C/[C@@H](O)C[C@@H](O)CC(=O)O` [Example 13c], for which the IC50 on HMG-CoA reductase stood at 38 nM.

Consider `Cc1cc(-c2ccc(F)cc2)c(/C=C/[C@@H](O)C[C@@H](O)CC(=O)O)c(C(C)C)n1` [Example 13d], for which, at HMG-CoA reductase, the IC50 is 9.1 nM.

Take `CC(C)c1nc(-c2ccccc2)cc(-c2ccc(F)cc2)c1/C=C/[C@@H](O)C[C@@H](O)CC(=O)O` [Example 13e]: on HMG-CoA reductase, the IC50 was 2.9 nM.

Turning to `CC(C)c1cc(-c2ccccc2)nc(-c2ccc(F)cc2)c1/C=C/[C@@H](O)C[C@@H](O)CC(=O)O` [Example 13f], the IC50 on HMG-CoA reductase worked out at 4 nM.

With `CC(C)(C)c1nc(-c2ccccc2)cc(-c2ccc(F)cc2)c1/C=C/[C@@H](O)C[C@@H](O)CC(=O)O` [Example 13g], the IC50 on HMG-CoA reductase was 18 nM.

As for `Cc1ccc(C)c(-c2cc(-c3ccc(F)cc3)c(/C=C/[C@@H](O)C[C@@H](O)CC(=O)O)c(C(C)C)n2)c1` [Example 13i], the IC50 on HMG-CoA reductase turned out to be 5 nM.

For `CC(C)c1nc(-c2ccc(F)cc2)cc(-c2ccc(F)cc2)c1/C=C/[C@@H](O)C[C@@H](O)CC(=O)O` [Example 13j], at HMG-CoA reductase, the IC50 was determined as 2.3 nM.

In the case of `Cc1nc(C)c(/C=C/[C@@H](O)C[C@@H](O)CC(=O)O)c(-c2ccc(F)cc2)n1` [Example 13k], the IC50 at HMG-CoA reductase was found to be 500 nM.

On to `Cc1nc(C)c(/C=C/[C@@H](O)C[C@@H](O)CC(=O)O)c(-c2ccc(Cl)cc2)n1` [Example 13l], for which the IC50 on HMG-CoA reductase was 600 nM.

Consider `CC(C)c1nc(-c2ccccc2)nc(-c2ccc(F)cc2)c1/C=C/[C@@H](O)C[C@@H](O)CC(=O)O` [Example 13o], for which the IC50 on HMG-CoA reductase stood at 3 nM.

`CC(C)c1cc(-c2ccc(F)cc2)c(/C=C/[C@@H](O)C[C@@H](O)CC(=O)O)c(C(C)C)n1` [Example 13q]: the IC50 at HMG-CoA reductase was determined as 2.5 nM.

As to `CC(C)c1nc(C(C)(C)C)cc(-c2ccc(F)cc2)c1/C=C/[C@@H](O)C[C@@H](O)CC(=O)O` [Example 13r], the IC50 on HMG-CoA reductase worked out at 1.2 nM.

Consider `CC(C)c1nc(C2CCCCC2)cc(-c2ccc(F)cc2)c1/C=C/[C@@H](O)C[C@@H](O)CC(=O)O` [Example 13s], for which, on HMG-CoA reductase, the IC50 was 3.7 nM.

For the compound `CC(C)c1nc(-c2ccc(F)cc2)c(/C=C/[C@@H](O)C[C@@H](O)CC(=O)O)c(C(C)C)n1` [Example 13v], the IC50 on HMG-CoA reductase came to 2.5 nM.

On to `CC(C)c1nc(-c2ccc(F)cc2)nc(-c2ccc(F)cc2)c1/C=C/[C@@H](O)C[C@@H](O)CC(=O)O` [Example 13w], for which the IC50 on HMG-CoA reductase stood at 0.9 nM.

For `CC[C@H](C)C(=O)O[C@H]1CCC=C2C=C[C@H](C)[C@H](CC[C@@H]3C[C@@H](O)CC(=O)O3)[C@H]21` [compactin], the “inhibition of HMG-CoA reductase (literature)” value in experiment [4] is listed as “inhibition”.
